Columns and labels:
ECFC [1] = test: Soluble CD146 secretion in ECFC (ELISA); type: cell-based, human; conditions: for secretion of soluble CD146 in response to stimuli: 24 h, 20 ng/ml TNF, 20 ng/ml VEGF, 5 ng/ml TGFb, 50 ng/ml netrin, 50 ng/ml Wnt5a; for sCD146 secretion with proteinase inhibitors: IF 50 μM, TIMPs 1 μg/ml
Protocol: A: Secretion of soluble CD146 (CD146s) was determined in ECFC in response to 24 h of treatment with 20 ng/ml TNF, 20 ng/ml VEGF, 5 ng/ml TGFb, 50 ng/ml netrin, 50 ng/ml Wnt5a and 50 ng/ml Wnt3a.
B: The effect of the pan-inhibitor GM6001 was tested on CD146s secretion in ECFC cells by ELISA. Experiments were performed in control conditions and after treatment with 20 ng/ml TNF for 24 h. […] A dose-dependence of GM6001 effect was performed between 1 and 50 μM. Results are the mean values+/−SEM of 5 experiments.
C: The effect of furin convertase inhibitor (IF) was tested at 50 μMon CD146s secretion in control condition and after treatment with TNF 20 ng/ml for 24 h. Results are the mean values+/−SEM of 3 experiments.
D: Effect of TIMP-1, -2 and -3 (1 μg/ml) was tested on CD146s secretion in control condition and after treatment with 20 ng/ml TNF. Results are the mean values+/−SEM of 3 experiments. *: P<0.05, **: P<0.01, ***: P<0.001, experimental vs Control
A: ECFC were transfected with siRNA targeting the short (shCD146) or the long (IgCD146) isoforms of CD146 and with a control siRNA (C). Soluble CD146 (sCD146) secretion was determined. Results are the mean values+/−SEM of 4 different experiments.
B: ECFC were transfected with siRNA targeting MT1-MMP, MMP2, ADAM10 or Tace and with a control siRNA (C). Soluble CD146 (sCD146) secretion was determined. In one condition, cells were treated with GM6001 10 μM. Results are the mean values+/−SEM of 5 different experiments.
A: ECFC were transfected with siRNA targeting the short (shCD146) or the long (IgCD146) isoforms of CD146 and with a control siRNA (C) and soluble CD146 (sCD146) secretion was determined in basal condition and in cells treated for 24 h with TNF 20 ng/ml. Results are the mean values +/−SEM of 5 different experiments.
B: ECFC treated for 24 h with 20 ng/ml TNF were transfected with siRNA targeting Tace, ADAM10, MT1-MMP and with a control siRNA (C) and soluble CD146 (sCD146) secretion was determined. Results are the mean values +/−SEM of 3 different experiments.
Endothelial Colony Forming Cells (ECFC) were cultured in endothelial EGM-2 MV medium as previously described (Delorme B et al., 2005).
SiRNA designed to silence the different isoforms of sCD146 were generated. A control siRNA was also used in each experiment. siRNAs were introduced in endothelial cells using the Silence magmagnetofection kit as described by the manufacturer (OZ Biosciences).
Shed sCD146 was assayed using the commercial ELISA assay (CY-QUANT sCD146, Biocytex, Marseille). Plates were coated with specific mouse monoclonal anti-human CD146 F(ab′)2 fragments. 10 μL of sera was added to each well and incubated for 30 minutes at room temperature. After incubation, the plates were washed five times, followed by incubation with a specific HRP-coupled monoclonal antibody (7A4-HRP, 1 mg/ml, Biocytex, Marseille, France) at a 1:1 000 dilution in a specific diluent for 30 minutes at room temperature and then washed five times. 200 μL of tetramethylbenzidine (TMB) substrate was incubated for approximately 20 minutes at room temperature. The colorimetric reaction was then stopped by the addition of 100 μL of an acid solution. The intensity of the signal was directly related to the concentration of sCD146 initially contained in the sample. For detecting the two spliced isoforms of sCD146 (I5-13-sCD146 and I10-sCD146), the same immunoassay was used (Biocytex). The protocol was modified only for the second antibody (detection antibody) that was replaced by the anti-I5-13-sCD146 or anti-I10-sCD146 antibodies coupled to HRP.

ECFC [2] = test: mRNA expression of sCD146 isoforms in ECFC (qPCR); type: cell-based, human; conditions: ECFC; 24 h treatment (WNT5a 15 min, WNT3a 1 h)
Protocol: C: The mRNA expression of I10-sCD146 and I5-13-sCD146 isoforms was analyzed by qPCR in ECFC after treatment of the cells for 24 h with the recombinant shed soluble CD146 50 ng/ml, VEGF 20 ng/ml, TNF 20 ng/ml, TGF beta 5 ng/ml, and netrin 50 ng/ml. Cells were also treated for 15 min with WNT5a 200 ng/ml and 1 h with WNT3a 50 ng/ml. Results are the mean values +/−SEM of 3 experiments. *: P<0.05, experimental vs Control.
Total cellular RNA was isolated from cells, reverse transcribed into cDNA and the resulting cDNA was subjected to qPCR.

[3] = control condition and TNF 20 ng/ml 24 h

CNC(=O)[C@H](Cc1c[nH]c2ccccc12)NC(=O)[C@@H](CC(=O)NO)CC(C)C [GM6001]
GM6001-dependent part of total sCD146 secretion (ECFC [1]; control condition and TNF 20 ng/ml 24 h, GM6001 1-50 μM): around 75%

TGFb: stimulus of endothelial cells, 5 ng/ml [reference compound]
secretion of soluble CD146 in response to stimuli (ECFC [1]): increased
I5-13-sCD146 mRNA level (ECFC [2]): not modified

shCD146 siRNA: siRNA targeting the short isoform of CD146; sens 5′CAGGAGAUGGAGAGAAAUACAUCGA (antisense UCGAUGUAUUUCUCUCCAUCUCCUG; chemistry not given here)
reduction of sCD146 secretion by siRNA (ECFC [1]; 24 h TNF 20 ng/ml): ~25%
effect of siRNA on sCD146 secretion (ECFC [1]; control condition): no effect

TIMP-1: TIMP used to inhibit sCD146 secretion
sCD146 secretion with proteinase inhibitors (ECFC [1]; [3]): able to reduce sCD146 secretion in both conditions

B1: TIMP-3: TIMP used to inhibit sCD146 secretion (protein, UniProt P35625 24-211, looked up)
Metalloproteinase inhibitor 3: CTCSPSHPQDAFCNSDIVIRAKVVGKKLVKEGPFGTLVYTIKQMKMYRGFTKMPHVQYIHTEASESLCGLKLEVNKYQYLLTGRVYDGKMYTGLCNFVERWDQLTLSQRKGLNYRYHLGCNCKIKSCYYLPCFVTSKNECLWTDMLSNFGYPGYQSKHYACIRQKGGYCSWYRGWAPPDKSIINATDP
sCD146 secretion with proteinase inhibitors (ECFC [1]; [3]): able to reduce sCD146 secretion only when the cells were treated with TNF

B2: Wnt5a: stimulus of endothelial cells (protein, UniProt P41221 62-380, looked up)
Protein Wnt-5a: IIGAQPLCSQLAGLSQGQKKLCHLYQDHMQYIGEGAKTGIKECQYQFRHRRWNCSTVDNTSVFGRVMQIGSRETAFTYAVSAAGVVNAMSRACREGELSTCGCSRAARPKDLPRDWLWGGCGDNIDYGYRFAKEFVDARERERIHAKGSYESARILMNLHNNEAGRRTVYNLADVACKCHGVSGSCSLKTCWLQLADFRKVGDALKEKYDSAAAMRLNSRGKLVQVNSRFNSPTTQDLVYIDPSPDYCVRNESTGSLGTQGRLCNKTSEGMDGCELMCCGRGYDQFKTVQTERCHCKFHWCCYVKCKKCTEIVDQFVCK
secretion of soluble CD146 in response to stimuli (ECFC [1]): increased
I5-13-sCD146 mRNA level (ECFC [2]): up-regulated

B3: Wnt3a: stimulus of endothelial cells (protein, UniProt P56704 19-352, looked up)
Protein Wnt-3a: SYPIWWSLAVGPQYSSLGSQPILCASIPGLVPKQLRFCRNYVEIMPSVAEGIKIGIQECQHQFRGRRWNCTTVHDSLAIFGPVLDKATRESAFVHAIASAGVAFAVTRSCAEGTAAICGCSSRHQGSPGKGWKWGGCSEDIEFGGMVSREFADARENRPDARSAMNRHNNEAGRQAIASHMHLKCKCHGLSGSCEVKTCWWSQPDFRAIGDFLKDKYDSASEMVVEKHRESRGWVETLRPRYTYFKVPTERDLVYYEASPNFCEPNPETGSFGTRDRTCNVSSHGIDGCDLLCCGRGHNARAERRREKCRCVFHWCCYVSCQECTRVYDVHTCK
I5-13-sCD146 mRNA level (ECFC [2]): not modified
I10-sCD146 mRNA level (ECFC [2]): down-regulated
